According to article PMC9304322, “Targeting retinoic acid receptor alpha-corepressor interaction activates chaperone-mediated autophagy and protects against retinal degeneration” (Nature Communications, 2022):
Where “and” joins values, the source holds several entries; their conditions need not be identical. Equal values may be shown once.

What was measured:
NIH3T3 = assay: Intracellular proteolysis of long half-life proteins; type: cell-based, mouse
Experimental: Confluent cells were labelled with [^3H]leucine (2μCi/ml) (NEN-PerkinElmer Life Sciences) for 48 h and then extensively washed and maintained in medium with an excess of unlabeled leucine. Proteolysis was calculated from aliquots of the medium taken at different times and precipitated in trichloroacetic acid, as the amount of acid-precipitable radioactivity transformed to acid-soluble radioactivity at each time. Where indicated cell were treated during the chase with […] leupeptin (Sigma, #108975) and […] NH4Cl (to determine lysosomal degradation) or with 100 μm MRT 68921 dihydrochloride (Tocris, #5780) (to determine macroautophagy degradation).

[1] = system: CMA network components in NIH3T3 cells; assay: qPCR of CMA network components and CMA activation score; type: cell-based, mouse; set-up: LAMP2A mRNA level / HSP90AB1 mRNA level / HSP40 mRNA level / RAC1 mRNA level / AKT1 mRNA level / AKT2 mRNA level / CTSA mRNA level / NFATC1 mRNA level / HSC70 mRNA level / NCOR1 mRNA level / NFE2L2 mRNA level / RAB11A mRNA level / RARa mRNA level / HSP90AA1 mRNA level / EEF1A1 mRNA level / RICTOR mRNA level: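 fold of untreated cells after 20 µM for 24 h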; key to CMA activation score: weighted (LAMP-2A ×2), directed (±1) average of CMA network expression;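 as to AKT1 mRNA level: fold of untreated cells after 20 µM for 24 h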;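 as to AKT2 mRNA level: fold of untreated cells after 20 µM for 24 h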;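 as to CTSA mRNA level: fold of untreated cells after 20 µM for 24 h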;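 as to HSC70 mRNA level: fold of untreated cells after 20 µM for 24 h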;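 as to HSP40 mRNA level: fold of untreated cells after 20 µM for 24 h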;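 as to HSP90AA1 mRNA level: fold of untreated cells after 20 µM for 24 h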;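 as to HSP90AB1 mRNA level: fold of untreated cells after 20 µM for 24 h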;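 as to LAMP2A mRNA level: fold of untreated cells after 20 µM for 24 h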;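 as to NCOR1 mRNA level: fold of untreated cells after 20 µM for 24 h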;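 as to NFATC1 mRNA level: fold of untreated cells after 20 µM for 24 h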;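 as to NFE2L2 mRNA level: fold of untreated cells after 20 µM for 24 h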;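 as to PHLPP1 mRNA level: fold of untreated cells after 20 µM for 24 h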;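 as to RAB11A mRNA level: fold of untreated cells after 20 µM for 24 h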;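 as to RAC1 mRNA level: fold of untreated cells after 20 µM for 24 h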;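 as to RARa mRNA level: fold of untreated cells after 20 µM for 24 h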
Experimental: RNA was extracted from individual retinas or tissue sections (brain, liver). Total RNA from retinas was extracted using TRIzol Reagent (Invitrogen, # 15596-018), and reverse transcription was performed using the High-Capacity cDNA Reverse Transcription Kit (Applied Biosystems, # 4374966) according to the manufacturer’s instructions. Quantitative real-time PCR was performed in a Light Cycler 480 Instrument (Roche) with Taqman LightCycler 480 probes Master Mix (Roche, #4887301001) using Taqman assays (Life Technologies). For cells in culture, RNA was extracted using RNeasy Plus Mini Kit (Qiagen, #74034), and reverse transcription was performed using Superscript III (Invitrogen, #18080051). Quantitative RT-PCR analysis were performed using Power SYBR Green PCR Master Mix (Applied Biosystems, #4368708) on a StepOne Plus Real-Time PCR System (Applied Biosystems). Mm01184405_m1 probe (Thermofisher) was used for rhodopsin and the sequence of all the other probes used for qPCR is included in Supplementary Table 2.
CMA index[14] was calculated using data set from[23]–[25]. Briefly, each element of the CMA network[13] has attributed a weight. As LAMP-2A is the rate-limiting component of CMA, it was given a weight of 2. Every other element received a weight of 1. Then, every element was attributed direction score that is +1 or −1 based on the known effect of a given element on CMA activity. The score was then calculated as the weighted/ directed average of expression counts of every element of the CMA network.

[2] = system: neuroblastoma cell line N2a expressing the KFERQ-PS-Dendra reporter; assay: CMA activity, KFERQ-PS-Dendra reporter in N2a cells; type: cell-based, mouse; set-up: CMA activity, mean (Fig. S2a): unit not given here
Experimental: (§1) Cells were transduced with lentivirus carrying the KFERQ-PS-Dendra reporter as before. Cells were photoactivated by exposure to a 3.5 mA (current constant) light emitting diode (LED: Norlux, 405 nm) for 3 min and then plated in glass-bottom 96 well plates. At the desired times, cells were fixed with 4% PFA and imaged using high-content microscopy (Operetta system, Perkin Elmer). Images were quantified using the manufacturer’s software in a minimum of 1,200 cells in 9 independent fields per well. […] This was particularly important in the case of primary human cells where the efficiency of transduction was ~65%. To avoid confounding effects for drug-induced changes in cell volume or adherence to the plate that could bring a fraction of the cells per field outside of focus, we set a threshold to count only […] that have at least 1/10 of the average number of […] detected in the untreated wells for each cell type (3–4 puncta/cell in the case of NIH3T3 and N2a cells and 5 puncta/cell in primary human fibroblasts).

[3] = system: primary human fibroblast expressing the KFERQ-PS-Dendra reporter; assay: CMA activity, KFERQ-PS-Dendra reporter in primary human fibroblasts; type: cell-based; set-up: key to CMA activity, mean (Fig. S2c): puncta per cell
Experimental: as §1

[4] = Fig. 2d (left), individual replicate values, one sample t test

Clc1ccc2c(c1)OCC(c1ccc(-c3ccccc3)cc1)=N2 [CA39]
duration of the increase in degradation of long-lived proteins (NIH3T3; NIH3T3, 10 μM): remained upregulated 24 h | Lysosomal proteolysis, Mean (Fig. S3c) (NIH3T3; Time 6): 2.60 | Lysosomal proteolysis, Mean (Fig. S3c) (NIH3T3; Time 12): 7.36 | AKT1 mRNA level [1, 4]: 1.27 and 1.30 and 1.45 and 1.16 and 1.03 and 1.84 and 1.28 | AKT2 mRNA level [1, 4]: 1.32 and 1.30 and 1.24 and 1.01 and 1.08 and 1.88 and 1.04 | CTSA mRNA level [1, 4]: 1.42 and 1.82 and 1.76 and 1.16 and 1.21 and 1.47 and 1.18 | EEF1A1 mRNA level [1, 4]: 1.63 and 1.19 and 0.99 and 1.36 and 0.64 and 1.12 | HSC70 mRNA level [1, 4]: 1.22 and 1.61 and 1.44 and 1.21 and 1.29 and 2.10 and 1.42 | HSP40 mRNA level [1, 4]: 1.09 and 1.23 and 1.16 and 0.96 and 0.74 and 1.03 | HSP90AA1 mRNA level [1, 4]: 1.17 and 1.01 and 0.95 and 0.86 and 0.74 and 0.72 | HSP90AB1 mRNA level [1, 4]: 1.00 and 0.99 and 0.98 and 1.04 and 0.83 and 0.75 | LAMP2A mRNA level [1, 4]: 1.75 and 1.44 and 1.56 and 1.42 and 1.32 and 1.48 | NCOR1 mRNA level [1, 4]: 1.09 and 1.39 and 1.22 and 0.82 and 0.71 and 0.95 and 0.89 | NFATC1 mRNA level [1, 4]: 1.14 and 1.53 and 1.30 and 0.80 and 1.03 and 1.25 and 1.28 | NFE2L2 mRNA level [1, 4]: 0.96 and 1.16 and 1.02 and 0.72 and 0.80 and 1.15 and 1.10 | PHLPP1 mRNA level [1, 4]: 1.27 and 1.65 and 1.69 and 3.21 and 1.20 and 1.48 and 1.51 | RAB11A mRNA level [1, 4]: 1.05 and 1.19 and 0.95 and 0.84 and 1.00 and 1.21 and 1.07 | RAC1 mRNA level [1, 4]: 1.38 and 1.77 and 1.43 and 1.78 and 1.31 and 1.54 and 1.42 | RARa mRNA level [1, 4]: 0.55 and 1.08 and 1.05 and 0.89 and 0.84 and 0.93 and 0.88 | RICTOR mRNA level [1, 4]: 1.22 and 1.28 and 0.83 and 0.86 and 1.60 and 1.10 | CMA activation score ([1]; Fig. 2d (right), individual replicate values): 0.6107 and 0.1532 and -0.08737 and 0.08765 | predicted CMA score compared to AR7 ([1]; NIH3T3, 20μM for 24 h): higher | CMA activity, mean relative to concentration 0 = 1 (Fig. S2b) ([2]; 12+12w, concentration 0.2): 0.9934 | CMA activity, mean relative to concentration 0 = 1 (Fig. S2b) ([2]; 12+12w, concentration 2): 0.9832 | CMA activity, mean relative to concentration 0 = 1 (Fig. S2b) ([2]; 12+12w, concentration 5): 3.155 | CMA activity, mean relative to concentration 0 = 1 (Fig. S2b) ([2]; 12+12w, concentration 10): 2.605 | CMA activity, mean relative to concentration 0 = 1 (Fig. S2b) ([2]; 12+12w, concentration 20): 4.196 | CMA activity, mean relative to concentration 0 = 1 (Fig. S2b) ([2]; 12+12w, concentration 30): 3.752 | CMA activity, mean (Fig. S2a) ([2]; 12h, concentration 0.02): 3.028 | CMA activity, mean (Fig. S2a) ([2]; 12h, concentration 0.2): 4.51 | CMA activity, mean relative to concentration 0 = 1 (Fig. S2b) ([2]; 12h, concentration 0.2): 1.03 | CMA activity, mean (Fig. S2a) ([2]; 12h, concentration 2): 4.84 | CMA activity, mean relative to concentration 0 = 1 (Fig. S2b) ([2]; 12h, concentration 2): 1.106 | CMA activity, mean (Fig. S2a) ([2]; 12h, concentration 5): 10.9424 | CMA activity, mean relative to concentration 0 = 1 (Fig. S2b) ([2]; 12h, concentration 5): 2.5 | CMA activity, mean (Fig. S2a) ([2]; 12h, concentration 10): 9.785 | CMA activity, mean relative to concentration 0 = 1 (Fig. S2b) ([2]; 12h, concentration 10): 2.2356 | CMA activity, mean (Fig. S2a) ([2]; 12h, concentration 20): 12.4415 | CMA activity, mean relative to concentration 0 = 1 (Fig. S2b) ([2]; 12h, concentration 20): 2.842 | CMA activity, mean (Fig. S2a) ([2]; 12h, concentration 30): 12.3771 | CMA activity, mean relative to concentration 0 = 1 (Fig. S2b) ([2]; 12h, concentration 30): 2.828 | CMA activity, mean (Fig. S2a) ([2]; 12h, concentration 40): 18.3499 | CMA activity, mean (Fig. S2a) ([2]; 12h, concentration 50): 17.0288 | CMA activity, mean (Fig. S2a) ([2]; 12h, concentration 60): 19.2922 | CMA activity, mean (Fig. S2a) ([2]; 24h, concentration 0.02): 3.481 | CMA activity, mean (Fig. S2a) ([2]; 24h, concentration 0.2): 5.502 | CMA activity, mean relative to concentration 0 = 1 (Fig. S2b) ([2]; 24h, concentration 0.2): 1.258 | CMA activity, mean (Fig. S2a) ([2]; 24h, concentration 2): 4.784 | CMA activity, mean relative to concentration 0 = 1 (Fig. S2b) ([2]; 24h, concentration 2): 1.094 | CMA activity, mean (Fig. S2a) ([2]; 24h, concentration 5): 12.5789 | CMA activity, mean relative to concentration 0 = 1 (Fig. S2b) ([2]; 24h, concentration 5): 2.876 | CMA activity, mean (Fig. S2a) ([2]; 24h, concentration 10): 14.7898 | CMA activity, mean relative to concentration 0 = 1 (Fig. S2b) ([2]; 24h, concentration 10): 3.382 | CMA activity, mean (Fig. S2a) ([2]; 24h, concentration 20): 22.8096 | CMA activity, mean relative to concentration 0 = 1 (Fig. S2b) ([2]; 24h, concentration 20): 5.216 | CMA activity, mean (Fig. S2a) ([2]; 24h, concentration 30): 25.6157 | CMA activity, mean relative to concentration 0 = 1 (Fig. S2b) ([2]; 24h, concentration 30): 5.858 | CMA activity, mean (Fig. S2a) ([2]; 24h, concentration 40): 31.0418 | CMA activity, mean (Fig. S2a) ([2]; 24h, concentration 50): 34.0174 | CMA activity, mean (Fig. S2a) ([2]; 24h, concentration 60): 32.9288 | CMA activation in neuron-related mouse cells ([2]; in words): efficiently activated CMA | CMA activity, mean (Fig. S2c) ([3]; concentration 0.02): 24.0456 | CMA activity, mean (Fig. S2c) ([3]; concentration 0.2): 28.2677 | CMA activity, mean (Fig. S2c) ([3]; concentration 2): 18.5469 | CMA activation in human cells ([3]; in words): efficiently activated CMA
